Experimental data reported in PubChem BioAssay (NCI).
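Five concentrations, 48 hours, 96-well plates. Abbreviation: GI50, concentration required for 50% inhibition of growth. At the TGI there is no net growth.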

Key:
Assay in all cases: NCI anticancer screen, dose series, 48 h
MOLT-4 leukemia = tested on: MOLT-4 leukemia
COLO 205 colon = tested on: COLO 205 colon
NCI-H23 lung = tested on: NCI-H23 lung
HOP-92 NSCLC = tested on: HOP-92 NSCLC
SK-MEL-2 melanoma = tested on: SK-MEL-2 melanoma
OVCAR-4 ovarian = tested on: OVCAR-4 ovarian
786-0 renal = tested on: 786-0 renal
PC-3 prostate = tested on: PC-3 prostate
K-562 leukemia = tested on: K-562 leukemia
M14 melanoma = tested on: M14 melanoma

SMILES: CCC[C@H](Nc1nc(-c2ccc(NC(=O)NCC)c(OC)c2)ncc1C)c1cccnc1
- GI50 (MOLT-4 leukemia): 35.9 nM
- TGI (MOLT-4 leukemia): 13.1 µM
- GI50 (COLO 205 colon): 28.2 nM
- TGI (COLO 205 colon): 73.6 nM
- GI50 (NCI-H23 lung): 44.4 nM
- TGI (NCI-H23 lung): 6.93 µM
- GI50 (HOP-92 NSCLC): 236 nM
- TGI (HOP-92 NSCLC): 12.5 µM
- GI50 (SK-MEL-2 melanoma): 47.7 nM
- TGI (SK-MEL-2 melanoma): 20.7 µM
- GI50 (OVCAR-4 ovarian): 69.1 nM
- TGI (OVCAR-4 ovarian): 41.8 µM
- GI50 (786-0 renal): 45.3 nM
- TGI (786-0 renal): 12.6 µM
- GI50 (PC-3 prostate): 47 nM
- TGI (PC-3 prostate): > 55.6 µM
- GI50 (K-562 leukemia): 31 nM
- TGI (K-562 leukemia): 16.4 µM
- GI50 (M14 melanoma): 28.2 nM
- TGI (M14 melanoma): 82.4 nM
